Results on 19 compounds are retold here after patent US7320972B2, “4-Biarylyl-1-phenylazetidin-2-ones” (Microbia, Inc., priority 2003, dated 2008).

This experiment concerns cholesterol absorption (serum 3H-cholesterol). The experiment can be described thus: In Vivo Assay of Hypolipidemic Agents using the Rat Cholesterol Absorption Model. More on the design: species or system Sprague-Dawley rats. To be noted: po, peroral, 1 mg/kg, serum 3H-cholesterol 3 h after cholesterol dose, vs vehicle control. On the procedure: In Vivo Assay of Hypolipidemic Agents using the Rat Cholesterol Absorption Model. This model is based on models described by Burnett et al (2002), Bioorg. Med. Chem. Lett. 2002 Feb. 11;12(3):315-8 and J. Lipid Res. 1999 October;40(10):1747-57. Female Sprague-Dawley rats weighing 150-250 g are separated into groups of […] and fasted overnight. The animals (4-6/group) are dosed perorally with 300 μL test compounds in olive oil or suitable vehicle. Thirty minutes later, 3-5 microCuries ^3H-cholesterol per rat are delivered perorally in 300 μL olive oil. After three hours, 200 μL serum is collected, vortexed with scintillation fluid, and measured for radioactivity in a scintillation counter. Percent inhibition is defined as 100*(1−Ctest/Cctrl), where Ctest and Cctl refer to ^3H levels in serum for the test compound and for the vehicle only control, respectively. Percent inhibition values are reported for a fixed dose. The ED50 is the dose at which the half-maximal effect on serum ^3H levels is observed for a given test compound.
Representative compounds of the invention were tested in the Rat Cholesterol Absorption model above.

Each structure is given as a SMILES string.

Turning to `O=C(O)c1cccc(-c2ccc([C@@H]3[C@@H](CC[C@H](O)c4ccc(F)cc4)C(=O)N3c3ccc(F)cc3)cc2)c1` [Example 21, 4′-{(2S,3R)-1-(4-fluorophenyl)-3-[(3S)-3-(4-fluorophenyl)-3-hydroxypropyl]-4-oxoazetidin-2-yl]biphenyl-3-carboxylic acid], the inhibition in vivo (in general, the relative decrease from the control value, in per cent) at 1 mg/kg turned out to be 68%.

In the case of `O=C1[C@H](CC[C@H](O)c2ccc(F)cc2)[C@@H](c2ccc(-c3cc(O)cc(F)c3)cc2)N1c1ccc(F)cc1` [Example 112, (3R,4S)-4-(3′-fluoro-5′-hydroxybiphenyl-4-yl)-1-(4-fluorophenyl)-3-[(3S)-3-(4-fluorophenyl)-3-hydroxypropyl]azetidin-2-one], 1 mg/kg produced 75% inhibition in vivo.

Consider `COc1cc(OC)cc(-c2ccc([C@@H]3[C@@H](CC[C@H](O)c4ccc(F)cc4)C(=O)N3c3ccc(F)cc3)cc2)c1` [Example 107, (3R,4S)-4-(3′,5′-dimethoxybiphenyl-4-yl)-1-(4-fluorophenyl)-3-[(3S)-3-(4-fluorophenyl)-3-hydroxypropyl]azetidin-2-one], for which the inhibition in vivo at 1 mg/kg stood at 49%.

For the compound `CN(C)S(=O)(=O)c1ccc(-c2ccc([C@@H]3[C@@H](CC[C@H](O)c4ccc(F)cc4)C(=O)N3c3ccc(F)cc3)cc2)cc1` [Example 15, 4′-{(2S,3R)-1-(4-fluorophenyl)-3-[(3S)-3-(4-fluorophenyl)-3-hydroxypropyl]-4-oxoazetidin-2-yl}biphenyl-N,N-dimethylbiphenyl-4-sulfonamide], the inhibition in vivo at 1 mg/kg came to 8%. In the case of `CN(C)c1cccc(-c2ccc([C@@H]3[C@@H](CC[C@H](O)c4ccc(F)cc4)C(=O)N3c3ccc(F)cc3)cc2)c1` [Example 83, (3R,4S)-4-[3′-(dimethylamino)biphenyl-4-yl]-1-(4-fluorophenyl)-3-[(3S)-3-(4-fluorophenyl)-3-hydroxypropyl]azetidin-2-one] it was 38%; in that of `O=C(O)c1ccc(-c2ccc([C@@H]3[C@@H](CC[C@H](O)c4ccc(F)cc4)C(=O)N3c3ccc(F)cc3)cc2)cc1O` [Example 110, 4′-{(2S,3R)-1-(4-fluorophenyl)-3-[(3S)-3-(4-fluorophenyl)-3-hydroxypropyl]-4-oxoazetidin-2-yl}-3-hydroxybiphenyl-4-carboxylic Acid], 72%. Compound `O=C1[C@H](CC[C@H](O)c2ccc(F)cc2)[C@@H](c2ccc(-c3cccc([C@H](O)[C@H]4OC(O)[C@H](O)[C@@H](O)[C@@H]4O)c3)cc2)N1c1ccccc1` (stereo partly drawn) [Example 71, (6S)-6-C-(4′-{(2S,3R)-3-[(3S)-3-(4-Fluorophenyl)-3-hydroxypropyl]-4-oxo-1-phenylazetidin-2-yl}biphenyl-3-yl)-D-glucopyranose] yielded an inhibition in vivo at 1 mg/kg of 65%. `O=C1[C@H](CC[C@H](O)c2ccc(F)cc2)[C@@H](c2ccc(-c3cccc([C@@H]4O[C@H](CO)[C@@H](O)[C@H](O)[C@H]4O)c3)cc2)N1c1ccccc1` [Example 64, (1S)-1,5-Anhydro-1-(4′-{(2S,3R)-3-[(3S)-3-(4-fluorophenyl)-3-hydroxypropyl]-4-oxo-1-phenylazetidin-2-yl}biphenyl-3-yl)-D-glucitol] came in with an inhibition in vivo at 1 mg/kg of 67%.

`O=C1[C@H](CC[C@H](O)c2ccc(F)cc2)[C@@H](c2ccc(-c3cccc(O)c3)s2)N1c1ccccc1` [Example 50, (3R,4S)-3-[(3S)-3-(4-Fluorophenyl)-3-hydroxypropyl]-4-[5-(3-hydroxyphenyl)-2-thienyl]-1-phenylazetidin-2-one] registered an inhibition in vivo at 1 mg/kg of 27%. Regarding `O=C1[C@H](CC[C@H](O)c2ccc(F)cc2)[C@@H](c2ccc(-c3cccc(O)c3)cc2O)N1c1ccc(F)cc1` [Example 121, (3R,4S)-4-(3,3′-dihydroxybiphenyl-4-yl)-1-(4-fluorophenyl)-3-[(3S)-3-(4-fluorophenyl)-3-hydroxypropyl]azetidin-2-one], the inhibition in vivo at 1 mg/kg was determined as 72%. In the case of `COc1ccc(-c2ccc([C@@H]3[C@@H](CC[C@H](O)c4ccc(F)cc4)C(=O)N3c3ccc(F)cc3)cc2)c(OC)c1OC` [Example 96, (3R,4S)-1-(4-fluorophenyl)-3-[(3S)-3-(4-fluorophenyl)-3-hydroxypropyl]-4-(2′,3′,4′-trimethoxybiphenyl-4-yl)azetidin-2-one] it was 69%; in that of `O=C1[C@H](CC[C@H](O)c2ccc(F)cc2)[C@@H](c2ccc(-c3ccc4ccccc4c3)cc2)N1c1ccc(F)cc1` [Example 91, (3R,4S)-1-(4-fluorophenyl)-3-[(3S)-3-(4-fluorophenyl)-3-hydroxypropyl]-4-[4-(2-naphthyl)phenyl]azetidin-2-one], 56%. For the compound `O=C1[C@H](CC[C@H](O)c2ccc(F)cc2)[C@@H](c2ccc(-c3cccc(B(O)O)c3)cc2)N1c1ccccc1` [Example 59, (4′-{(2S,3R)-3-[(3S)-3-(4-Fluorophenyl)-3-hydroxypropyl]-4-oxo-1-phenylazetidin-2-yl}biphenyl-3-yl)boronic acid], the inhibition in vivo at 1 mg/kg came to 70%. The same measure for `O=C1[C@H](CC[C@H](O)c2ccc(F)cc2)[C@@H](c2ccc(-c3cc(O)cc(O)c3)cc2)N1c1ccc(F)cc1` [Example 114, (3R,4S)-4-(3′,5′-dihydroxybiphenyl-4-yl)-1-(4-fluorophenyl)-3-[(3S)-3-(4-fluorophenyl)-3-hydroxypropyl]azetidin-2-one]: 72%; for `O=C1[C@H](CC[C@H](O)c2ccc(F)cc2)[C@@H](c2ccc(-c3cccc([C@H](O)[C@H]4OC(O)[C@H](O)[C@@H](O)[C@@H]4O)c3)cc2O)N1c1ccccc1` (stereo partly drawn) [Example 73, (6S)-6-C-(4′-{(2S,3R)-3-[(3S)-3-(4-Fluorophenyl)-3-hydroxypropyl]-4-oxo-1-phenylazetidin-2-yl}-3′-hydroxybiphenyl-3-yl)-D-glucopyranose]: 59%. For the compound `COc1cc(-c2ccc([C@@H]3[C@@H](CC[C@H](O)c4ccc(F)cc4)C(=O)N3c3ccc(F)cc3)cc2)ccc1O` [Example 102, (3R,4S)-1-(4-fluorophenyl)-3-[(3S)-3-(4-fluorophenyl)-3-hydroxypropyl]-4-(4′-hydroxy-3′-methoxybiphenyl-4-yl)azetidin-2-one], the inhibition in vivo at 1 mg/kg is 56%. The same measure for `CCOc1ccc(-c2ccc([C@@H]3[C@@H](CC[C@H](O)c4ccc(F)cc4)C(=O)N3c3ccc(F)cc3)cc2)cc1` [Example 101, (3R,4S)-4-(4′-ethoxybiphenyl-4-yl)-1-(4-fluorophenyl)-3-[(3S)-3-(4-fluorophenyl)-3-hydroxypropyl]azetidin-2-one]: 41%; for `COc1ccc(-c2ccc([C@@H]3[C@@H](CC[C@H](O)c4ccc(F)cc4)C(=O)N3c3ccc(F)cc3)cc2)c(OC)c1` [Example 97, (3R,4S)-4-(2′,4′-dimethoxybiphenyl-4-yl)-1-(4-fluorophenyl)-3-[(3S)-3-(4-fluorophenyl)-3-hydroxypropyl]azetidin-2-one]: 40%; for `COc1cccc(-c2ccc([C@@H]3[C@@H](CC[C@H](O)c4ccc(F)cc4)C(=O)N3c3ccc(F)cc3)cc2)c1` [Example 12, (3R,4S)-1-(4-fluorophenyl)-3-[(3S)-3-(4-fluorophenyl)-3-hydroxypropyl]-4-(3′-methoxybiphenyl-4-yl)azetidin-2-one]: 70%.
